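Dose response: 5 concentrations. Exposure: 48 h. Format: 96-well plates. Endpoint: linear interpolation; highest concentration if not reached. GI50: concentration for 50% inhibition of growth. TGI denotes the concentration required for complete inhibition of growth.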 A value given as a limit tells only on which side of the number the result lay.

The source of these data is PubChem BioAssay (NCI).

What all share (experiment): NCI-60 cell line screen, 48 h
The test system of assay [1] is BT-549 breast.
For assay [2], the system named is NCI-H226 lung.
The test system of assay [3] is MDA-MB-435.
The subject of assay [4] is UACC-257 melanoma.
Assay [5] relates to HCT-116 colon.
Assay [6] relates to OVCAR-5 ovarian.
Assay [7] deals with A498 renal.
Assay [8] has as its system HL-60(TB) leukemia.
Assay [9] deals with M14 melanoma.
The subject of assay [10] is MDA-MB-231 breast.

In the case of `O=C(Nc1ccc(Br)cc1F)c1cc(F)ccc1O`, the GI50 is 0.356 µM in assay [1]; 0.67 µM in [2]; 0.539 µM in assay [3]; 0.466 µM in [4]; 0.44 µM in assay [5]; 3.85 µM in assay [6]. The GI50 was 0.172 µM in [7], 0.485 µM in assay [8], 0.514 µM in assay [9] and 0.41 µM in [10]. Moreover, the TGI is 1.4 µM in assay [1]; 3.46 µM in assay [2]; 4.41 µM in [3]; 4 µM in assay [4]; 1.96 µM in assay [5]; more than 100 µM in assay [6]. For the same compound, the TGI is 0.667 µM in [7], 2.89 µM in [8], 4.07 µM in assay [9] and 4 µM in [10].
For the compound `CC1(C)N=C(N)N=C(N)N1c1ccc(CCCCc2ccc(Cl)cc2S(=O)(=O)F)c(Cl)c1`, the GI50 was 2.64 µM in assay [1]; 1.23 µM in assay [2]; 0.474 µM in [3]; 0.808 µM in assay [4]; 0.346 µM in [5]; 0.666 µM in [6]. Also, the GI50 in assay [7] was 3.19 µM; in assay [8], 0.107 µM; in assay [9] it was 0.421 µM; in assay [10], 0.993 µM. The TGI in assay [1] is 24.3 µM; in assay [2], 29.2 µM; in [3], 16.1 µM; in assay [4] it was 17 µM; in assay [5], more than 38.3 µM; in [6], 22.8 µM. Besides, the TGI turned out to be 18.9 µM in [7], 3.26 µM in assay [8], 17.8 µM in [9] and 11.4 µM in assay [10].
As to `CC(=O)N=C1N(/C=C2\C(=O)Oc3ccccc3C2=O)C(=O)/C(=C/c2cccc(Cl)c2Cl)N1C`, the TGI in [1] was 75.3 µM; in [2] it was 94.2 µM; in assay [3], more than 100 µM; in assay [4], more than 100 µM; in assay [5], more than 100 µM; in [6], more than 100 µM. The TGI in assay [7] is 21.1 µM; in assay [8], more than 100 µM; in assay [9], 34.4 µM; in assay [10], 86.4 µM.
`CN1CCN(C2CCN(C(=O)Nc3cc(Oc4ccc(NC(=O)C5(C(=O)Nc6ccc(F)cc6)CC5)c(F)c4)ccn3)CC2)CC1`: the GI50 in assay [1] is 1.02 µM; in [3], 0.918 µM; in assay [4] it was 0.73 µM; in assay [5], 1.05 µM; in assay [6], 1.58 µM; in [7] it was 0.315 µM. Besides, the values for the GI50 in assay [8], in assay [9] and in [10] were 1.39 µM, 0.639 µM and 0.981 µM, respectively. For the same compound, the TGI is more than 2.71 µM in assay [1]; more than 3.12 µM in assay [2]; more than 3.27 µM in assay [3]; 2.27 µM in [4]; more than 10 µM in assay [5]; more than 10 µM in assay [6]. The TGI in [7] is 1.38 µM; in assay [8], more than 3.33 µM; in assay [9], 1.8 µM; in assay [10], more than 7 µM.
On to `CC[As](CC)SC[C@H](C)C(=O)N1CCC[C@H]1C(=O)O`, for which the GI50 was 0.0749 µM in assay [1]; 0.201 µM in assay [2]; 0.0305 µM in assay [3]; 0.282 µM in [4]; 0.0419 µM in [5]; 0.245 µM in assay [6]. For the same compound, the GI50 in [7] is 0.296 µM; in [8], 0.023 µM; in assay [9], 0.0257 µM; in assay [10] it was 0.0686 µM. In addition, the TGI in [1] came to 0.515 µM; in assay [2], 0.614 µM; in [3] it was 0.114 µM; in assay [4] it was 1.48 µM; in [5] it was 0.162 µM; in assay [6], 0.735 µM. For the same compound, the TGI in assay [7] was found to be 0.866 µM; in assay [8] it was 0.0757 µM; in [9], 0.0895 µM; in assay [10], 0.301 µM.
As to `CCN1CCN(C(=O)[C@@]2(C)CC[C@]3(C)CC[C@]4(C)C(=CC(=O)[C@@H]5[C@@]6(C)CC[C@H](OC7C[C@@H](O)[C@@H](O)C(C)O7)C(C)(C)[C@@H]6CC[C@]54C)[C@@H]3C2)CC1` (some centres undefined), the GI50 in [1] was 5.84 µM; in assay [2], 10.3 µM; in assay [3], 2.26 µM; in assay [4] it was 1.65 µM; in assay [5] it was 1.65 µM; in assay [6], 1.19 µM. The GI50 was 8.96 µM in assay [7], 0.939 µM in assay [8], 1.04 µM in assay [9] and 1.13 µM in assay [10]. Further, the TGI in [1] is 13 µM; in [2], 21.3 µM; in assay [3], 8.19 µM; in assay [4] it was 6.52 µM; in assay [5], 5.74 µM; in [6], 3.12 µM. The TGI in assay [7] stood at 17 µM; in [8] it was 1.91 µM; in assay [9], 2.19 µM; in assay [10], 2.59 µM.
For the compound `c1ccc(-c2nnc(-c3ccccn3)s2)nc1`, the GI50 in assay [1], in assay [2], in [3], in assay [4], in assay [5] and in assay [6] was more than 100 µM throughout. The GI50 was more than 100 µM in assay [7], more than 100 µM in assay [8], more than 100 µM in [9] and 72.5 µM in assay [10]. Further, the TGI in assay [1], in assay [2], in assay [3], in assay [4], in assay [5] and in [6] was more than 100 µM each time. Also, the TGI in [7], in [8], in [9] and in assay [10] was more than 100 µM throughout.
`COc1ccc(Sc2[nH]c(C(C)=O)c3ccccc23)cc1`: the GI50 in assay [1] is 3.13 µM; in assay [2] it was 5.66 µM; in [3], 2.76 µM; in [4], 15.3 µM; in assay [5], 12 µM; in [6] it was 17.3 µM. Also, the GI50 in [7] was 0.265 µM; in [8] it was 15 µM; in assay [9] it was 11.7 µM; in assay [10], 11.4 µM. For the same compound, the TGI in assay [1] came out at 17.4 µM; in assay [2], 27.6 µM; in assay [3], 13 µM; in assay [4], 33.3 µM; in [5], 24.3 µM; in assay [6] it was 53.1 µM. Moreover, the TGI in [7] is 0.848 µM; in assay [8], 33.4 µM; in assay [9], 25.1 µM; in assay [10], 29.5 µM.
Turning to `CCOC(=O)C1=CN(C)C=C(C(=O)OCC)C1c1cc(Br)c(OCC)c(OC)c1`, the GI50 in assay [1] was more than 100 µM; in assay [2], more than 100 µM; in assay [3], more than 100 µM; in assay [4], more than 100 µM; in [5], 25.9 µM; in assay [6], more than 100 µM. Besides, the GI50 was 4.99 µM in assay [7], more than 100 µM in assay [8], more than 100 µM in assay [9] and 45.4 µM in assay [10]. Further, the TGI in [1], in [2], in assay [3], in [4], in assay [5] and in assay [6] was more than 100 µM throughout. Further, the TGI in assay [7] was 94.9 µM; in assay [8], more than 100 µM; in assay [9] it was more than 100 µM; in [10] it was more than 100 µM.
As to `CC(=O)Nc1ccc(S(=O)(=O)N2C(=O)CCC2C(=O)Nc2ccc(Br)cc2)cc1` (centres undefined), the GI50 in [1] was 1.79 µM; in assay [2], 2.26 µM; in assay [3], 2.72 µM; in assay [4], 2.1 µM; in assay [5] it was 1.74 µM; in assay [6], 4.86 µM. Besides, the GI50 in assay [7] is 0.435 µM; in assay [8], 3.1 µM; in [9], 2.92 µM; in [10] it was 1.29 µM. The TGI in assay [1] was 8.38 µM; in assay [2], 13.2 µM; in [3], 14.3 µM; in assay [4] it was 9.5 µM; in assay [5], more than 100 µM; in [6] it was 21.7 µM. In addition, the TGI in [7] was found to be 4.71 µM; in [8] it was 19 µM; in assay [9], 32.8 µM; in [10] it was 6.94 µM.
On to `COc1ccc(OC)c2c1[nH]c(=O)c1c3ccccc3cn21`, for which the GI50 in [1] was 2.27 µM; in assay [2], 1.61 µM; in assay [3], 1.62 µM; in [4] it was 2 µM; in [5], 0.673 µM; in [6], 1.87 µM. For the same compound, the GI50 in assay [7] was 1.77 µM; in assay [8] it was 1.7 µM; in [9] it was 1.79 µM; in [10], 1.4 µM. Moreover, the TGI in assay [1] was 5.29 µM; in [2], 3.29 µM; in [3], 3.13 µM; in [4], 3.73 µM; in [5] it was 2.01 µM; in [6], 3.69 µM. Further, the TGI in assay [7] turned out to be 3.2 µM; in assay [8], 4.24 µM; in [9] it was 3.37 µM; in [10] it was 2.86 µM.
Consider `Cc1cc(Cl)cc(OCCn2cc(F)cn2)c1-c1nc(N)nc2c1CN(C(=O)NCC(C)(F)F)C2`, for which the GI50 in assay [1] was 50.3 µM; in assay [2], 0.233 µM; in assay [3], 0.0578 µM; in [4], 0.142 µM; in assay [5] it was 0.0548 µM; in [6] it was 2.66 µM. In addition, the GI50 is 0.261 µM in assay [7], 0.0407 µM in assay [8], 0.0848 µM in assay [9] and 0.257 µM in assay [10]. The TGI in [1], in assay [2], in assay [3], in assay [4], in [5] and in assay [6] was more than 100 µM in each case. Besides, the TGI in assay [7], in [8], in assay [9] and in assay [10] was more than 100 µM in each case.
